Experimental data published in patent US20030203373A1 (priority 2002, published 2003).
Several values for one entry are separate records, joined by “and”; a condition that tells them apart may be missing. Identical values can stand only once. Ends that are not written are not given here.

Target: T1, ACE from pig kidney (Sus scrofa, UniProt F1RRW5)
T1 construct: 1 mU ACE from pig kidney (EC 3.4.15.1 (Sigma)); purchased Sigma; host or cells: pig kidney (tissue-derived enzyme)
T1 sequence (F1RRW5 34-1309): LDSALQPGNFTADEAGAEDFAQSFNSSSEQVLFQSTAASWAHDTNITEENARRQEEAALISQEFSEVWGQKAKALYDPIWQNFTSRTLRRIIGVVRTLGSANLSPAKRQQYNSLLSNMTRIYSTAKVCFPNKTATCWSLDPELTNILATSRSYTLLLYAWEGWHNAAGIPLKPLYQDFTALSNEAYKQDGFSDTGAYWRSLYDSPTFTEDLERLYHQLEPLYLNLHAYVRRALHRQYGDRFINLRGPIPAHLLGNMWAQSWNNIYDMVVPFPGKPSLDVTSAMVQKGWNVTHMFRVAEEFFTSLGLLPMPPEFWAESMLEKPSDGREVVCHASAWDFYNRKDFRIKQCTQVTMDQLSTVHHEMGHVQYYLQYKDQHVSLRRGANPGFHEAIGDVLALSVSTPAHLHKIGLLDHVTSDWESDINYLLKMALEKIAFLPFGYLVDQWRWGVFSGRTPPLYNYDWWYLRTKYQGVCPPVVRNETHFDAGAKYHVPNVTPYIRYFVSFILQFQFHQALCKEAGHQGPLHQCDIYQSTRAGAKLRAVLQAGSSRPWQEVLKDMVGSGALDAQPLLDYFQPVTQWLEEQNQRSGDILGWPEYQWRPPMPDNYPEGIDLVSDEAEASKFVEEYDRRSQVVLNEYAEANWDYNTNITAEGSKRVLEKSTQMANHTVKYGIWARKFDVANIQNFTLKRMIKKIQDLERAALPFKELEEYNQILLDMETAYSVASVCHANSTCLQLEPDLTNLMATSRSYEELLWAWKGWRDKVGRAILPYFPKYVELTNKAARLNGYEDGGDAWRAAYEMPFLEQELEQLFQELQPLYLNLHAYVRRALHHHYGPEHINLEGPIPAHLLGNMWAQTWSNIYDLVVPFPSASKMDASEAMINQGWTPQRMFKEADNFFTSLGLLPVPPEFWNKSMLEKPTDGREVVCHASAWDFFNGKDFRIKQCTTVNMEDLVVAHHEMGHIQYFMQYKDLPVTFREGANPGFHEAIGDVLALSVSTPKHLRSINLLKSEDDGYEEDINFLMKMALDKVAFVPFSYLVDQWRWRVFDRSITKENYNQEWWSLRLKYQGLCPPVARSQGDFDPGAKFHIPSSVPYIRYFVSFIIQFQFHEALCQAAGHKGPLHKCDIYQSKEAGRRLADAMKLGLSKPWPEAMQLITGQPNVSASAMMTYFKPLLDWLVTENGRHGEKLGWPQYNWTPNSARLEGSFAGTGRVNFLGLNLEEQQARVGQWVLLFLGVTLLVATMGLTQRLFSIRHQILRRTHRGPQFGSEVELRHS
Assay: biochemical
Type: biochemical
Text: These peptides were investigated for their inhibitory effect using an in vitro-ACE-inhibitor-assay with an angiotensin-converting-enzyme derived from pig kidney. Hippuryl-histidyl-leucin was used as a substrate. […] A concrete experimental description is given below.
The principle of the ACE-inhibition-assay was established by Chejung, H. S., Cushman, D. W.: “Inhibition of homogenous angiotensin converting enzyme of rabbit lung by synthetic venom peptides of Bothrops jararaca.” in Biochimica et Biophysica Acta 293, 451-563 (1973).
The assay was performed in 96 well HTRF-plates (Packard). The concentrations used for each well were:
1 mU ACE from pig kidney (EC 3.4.15.1 (Sigma)) in 30 μl of assay buffer (25 mM HEPES; 0,3 M NaCl, pH 8,2) and 20 μl inhibitor dissolved in assay buffer (0,35-200 μM). The reaction was started by adding 50 μl of 2 mM hippuryl-histidyl-leucin (Sigma) in assay buffer. The reaction was performed at room temperature (22° C.) for 30 minutes and terminated by adding 50 μl of 2 M NaOH. Afterwards 50 μl of 0,5% ortho-phtalaldehyd (Sigma) in methanol were added, 5 minutes later followed by 50 μl of 2,5 M HCl-solution to stabilize the developed fluorescence product.
The results were used to calculate the % inhibition. The IC50-values were determined graphically from a curve showing the dose-reaction ratio.
In order to minimize errors due to time-dependent differences, all pipetting steps were performed in a precise time schedule.

[1] = inhibitor 0.39 μM, replicates A-D
[2] = inhibitor 0.78125 μM, replicates A-D
[3] = inhibitor 1.5625 μM, replicates A-D
[4] = inhibitor 3.125 μM, replicates A-D
[5] = inhibitor 6.25 μM, replicates A-D
[6] = inhibitor 12.5 μM, replicates A-D
[7] = inhibitor 25 μM, replicates A-D
[8] = inhibitor 50 μM, replicates A-D
[9] = inhibitor 100 μM, replicates A-D
[10] = inhibitor 200 μM, replicates A-D

LSPLPEVPP [Peptide S546]
IC50 (ACE from pig kidney, determined graphically, read-out: IC50-value (ACE inhibition)): 3.5 µM | fluorescence reading (ACE Inhibitor Assay) [1]: 803315 and 773719 and 787391 and 826280 | inhibition at 0.39 µM [1]: 11.1% | % inhibition (ACE Inhibitor Assay) (inhibitor 0.39 μM, replicates A-D, 0.39 µM): 14.38% and 12.86% and 8.53% | fluorescence reading (ACE Inhibitor Assay) [2]: 719861 and 687713 and 702450 and 763649 | inhibition at 0.78125 µM [2]: 20.4% | % inhibition (ACE Inhibitor Assay) (inhibitor 0.78125 μM, replicates A-D, 0.78125 µM): 23.96% and 22.32% and 15.5% | fluorescence reading (ACE Inhibitor Assay) [3]: 591636 and 572728 and 566984 and 657580 | inhibition at 1.5625 µM [3]: 34.7% | % inhibition (ACE Inhibitor Assay) (inhibitor 1.5625 μM, replicates A-D, 1.5625 µM): 36.77% and 37.41% and 27.32% | fluorescence reading (ACE Inhibitor Assay) [4]: 483121 and 472396 and 452574 and 495814 | inhibition at 3.125 µM [4]: 46.8% | % inhibition (ACE Inhibitor Assay) (inhibitor 3.125 μM, replicates A-D, 3.125 µM): 47.95% and 50.15% and 45.32% | fluorescence reading (ACE Inhibitor Assay) [5]: 308510 and 312423 and 322970 and 336576 | inhibition at 6.25 µM [5]: 66.2% | % inhibition (ACE Inhibitor Assay) (inhibitor 6.25 μM, replicates A-D, 6.25 µM): 65.77% and 64.59% and 63.07% | fluorescence reading (ACE Inhibitor Assay) [6]: 225714 and 208268 and 221839 and 226385 | inhibition at 12.5 µM [6]: 75.4% | % inhibition (ACE Inhibitor Assay) (inhibitor 12.5 μM, replicates A-D, 12.5 µM): 77.32% and 75.86% and 75.35% | fluorescence reading (ACE Inhibitor Assay) [7]: 116421 and 119382 and 118514 and 124101 | inhibition at 25 µM [7]: 87.6% | % inhibition (ACE Inhibitor Assay) (inhibitor 25 μM, replicates A-D, 25 µM): 87.27% and 87.36% and 86.74% | fluorescence reading (ACE Inhibitor Assay) [8]: 69502 and 65379 and 67861 and 73176 | inhibition at 50 µM [8]: 92.8% | % inhibition (ACE Inhibitor Assay) (inhibitor 50 μM, replicates A-D, 50 µM): 93.28% and 93.01% and 92.41% | fluorescence reading (ACE Inhibitor Assay) [9]: 37664 and 36789 and 37490 and 39445 | inhibition at 100 µM [9]: 96.4% | % inhibition (ACE Inhibitor Assay) (inhibitor 100 μM, replicates A-D, 100 µM): 96.47% and 96.39% and 96.17% | fluorescence reading (ACE Inhibitor Assay) [10]: 22822 and 23110 and 24700 and 22511 | inhibition at 200 µM [10]: 98% | % inhibition (ACE Inhibitor Assay) (inhibitor 200 μM, replicates A-D, 200 µM): 97.99% and 97.82% and 98.06%
